Values quoted from earlier work in US20050090660A1, “2'-deoxy-L-nucleosides” (priority 1999, published 2005).

How the values were obtained:
HBV = HBV patients, two and four week courses
[1] = system: mitochondrial DNA synthesis and lactic acid production
HIV = conditions: specificity versus HBV
polymerase γ = target: T1, polymerase γ (Homo sapiens, UniProt P54098); conditions: polymerase responsible for mitochondrial DNA chain elongation
T1 sequence (P54098 1-1239): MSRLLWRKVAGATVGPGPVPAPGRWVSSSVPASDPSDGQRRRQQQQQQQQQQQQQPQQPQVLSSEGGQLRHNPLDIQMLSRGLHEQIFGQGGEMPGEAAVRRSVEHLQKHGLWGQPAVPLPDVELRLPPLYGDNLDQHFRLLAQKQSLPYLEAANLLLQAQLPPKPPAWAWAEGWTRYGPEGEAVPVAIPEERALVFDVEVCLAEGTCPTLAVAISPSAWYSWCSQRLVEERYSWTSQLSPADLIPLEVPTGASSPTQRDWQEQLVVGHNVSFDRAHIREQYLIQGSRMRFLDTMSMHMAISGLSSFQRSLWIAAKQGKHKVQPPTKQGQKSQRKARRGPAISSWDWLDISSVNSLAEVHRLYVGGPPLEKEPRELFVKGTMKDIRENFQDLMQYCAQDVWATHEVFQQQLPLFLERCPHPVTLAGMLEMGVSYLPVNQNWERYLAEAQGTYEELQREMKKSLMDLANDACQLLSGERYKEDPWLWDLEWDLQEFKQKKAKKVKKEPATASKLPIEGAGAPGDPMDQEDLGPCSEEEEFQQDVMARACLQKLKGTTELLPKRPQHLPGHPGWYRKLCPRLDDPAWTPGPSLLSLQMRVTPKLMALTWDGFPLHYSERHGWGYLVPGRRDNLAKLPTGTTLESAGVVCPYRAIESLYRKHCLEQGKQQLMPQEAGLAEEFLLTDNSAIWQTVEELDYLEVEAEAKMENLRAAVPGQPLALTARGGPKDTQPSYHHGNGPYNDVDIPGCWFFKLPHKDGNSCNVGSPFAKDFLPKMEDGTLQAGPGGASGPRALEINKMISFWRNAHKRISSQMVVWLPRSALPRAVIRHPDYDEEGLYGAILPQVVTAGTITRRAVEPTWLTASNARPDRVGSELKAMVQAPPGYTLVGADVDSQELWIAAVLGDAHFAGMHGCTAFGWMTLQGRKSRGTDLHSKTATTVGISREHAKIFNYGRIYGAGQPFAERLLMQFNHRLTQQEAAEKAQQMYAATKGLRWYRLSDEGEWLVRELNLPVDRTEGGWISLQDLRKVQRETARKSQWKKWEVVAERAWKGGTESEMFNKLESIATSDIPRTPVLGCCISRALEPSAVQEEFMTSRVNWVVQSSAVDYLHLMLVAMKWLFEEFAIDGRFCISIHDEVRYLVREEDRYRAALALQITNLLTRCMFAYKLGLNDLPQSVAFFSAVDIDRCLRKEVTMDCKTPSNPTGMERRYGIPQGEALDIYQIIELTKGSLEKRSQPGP

SMILES | patients who died from hepatic failure (of the 7 patients with delayed hepatotoxicity, trial with 15 patients) | patients with delayed hepatotoxicity (prolonged treatment trial with 15 patients) | suppression of serum HBV DNA levels (HBV) | effect on lactic acid production [1] | effect on mitochondrial DNA synthesis [1] | activity against HIV (HIV) | substrate activity for polymerase γ (polymerase γ) | morphological changes in HepG2 cells (uninfected HepG2 cells; treated at up to 100 μM) | IC50 (uninfected HepG2 cells) | lactic acid production (hepatoma cell lines)
O=c1[nH]c(=O)n([C@@H]2O[C@H](CO)[C@@H](O)[C@@H]2F)cc1I [FIAU] | 5 | 7 patients | ≤ 95% | – | – | – | – | – | – | –
Nc1ncnc2c1ncn2[C@@H]1C[C@@H](O)[C@H](CO)O1 [L-dAdo, 2′-deoxy-β-L-adenosine] | – | – | – | no effect | no effect | not HIV | little, if any | no morphological changes | – | –
Cc1cn([C@@H]2C[C@@H](O)[C@H](CO)O2)c(=O)[nH]c1=O [L-dThd, 2′-Deoxy-β-L-thymidine] | – | – | – | no effect | no effect | not HIV | little, if any | – | > 200 µM | –
Nc1ccn([C@@H]2C[C@@H](O)[C@H](CO)O2)c(=O)n1 [L-dCyd, 2′-deoxy-β-L-cytidine] | – | – | – | no effect | no effect | not HIV | little, if any | – | > 200 µM | –
Cc1cn([C@H]2O[C@@H](CO)[C@H](O)[C@H]2F)c(=O)[nH]c1=O [L-FMAU] | – | – | – | – | – | – | – | – | – | no significant
